Source: ChEMBL document CHEMBL1129998, “Pharmacological options in the treatment of benign prostatic hyperplasia” (J Med Chem, 1997)

Tests used:
[1] = target: T1, Alpha-1D adrenergic receptor (Homo sapiens, UniProt P25100); test: Binding affinity was tested on human Alpha-1D adrenergic receptor
T1 sequence (P25100 whole entry): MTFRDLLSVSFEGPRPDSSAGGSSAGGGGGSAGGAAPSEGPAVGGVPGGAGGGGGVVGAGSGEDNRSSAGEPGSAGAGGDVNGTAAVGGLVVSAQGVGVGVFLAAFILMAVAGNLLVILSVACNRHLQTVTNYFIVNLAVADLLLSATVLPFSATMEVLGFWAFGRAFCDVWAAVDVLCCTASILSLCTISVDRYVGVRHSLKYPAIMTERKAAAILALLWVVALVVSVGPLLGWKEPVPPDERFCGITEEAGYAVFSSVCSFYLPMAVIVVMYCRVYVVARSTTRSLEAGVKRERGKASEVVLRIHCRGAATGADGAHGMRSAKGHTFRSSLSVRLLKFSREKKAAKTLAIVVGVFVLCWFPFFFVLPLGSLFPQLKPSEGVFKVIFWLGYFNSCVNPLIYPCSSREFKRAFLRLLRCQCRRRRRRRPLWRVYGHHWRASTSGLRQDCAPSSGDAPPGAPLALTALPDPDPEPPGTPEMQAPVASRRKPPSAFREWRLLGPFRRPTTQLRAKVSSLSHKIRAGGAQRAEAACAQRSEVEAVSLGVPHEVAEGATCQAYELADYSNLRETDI

[2] = target: T2, Alpha-1B adrenergic receptor (Homo sapiens, UniProt P35368); test: Binding affinity was tested on human Alpha-1B adrenergic receptor
T2 sequence (P35368 whole entry): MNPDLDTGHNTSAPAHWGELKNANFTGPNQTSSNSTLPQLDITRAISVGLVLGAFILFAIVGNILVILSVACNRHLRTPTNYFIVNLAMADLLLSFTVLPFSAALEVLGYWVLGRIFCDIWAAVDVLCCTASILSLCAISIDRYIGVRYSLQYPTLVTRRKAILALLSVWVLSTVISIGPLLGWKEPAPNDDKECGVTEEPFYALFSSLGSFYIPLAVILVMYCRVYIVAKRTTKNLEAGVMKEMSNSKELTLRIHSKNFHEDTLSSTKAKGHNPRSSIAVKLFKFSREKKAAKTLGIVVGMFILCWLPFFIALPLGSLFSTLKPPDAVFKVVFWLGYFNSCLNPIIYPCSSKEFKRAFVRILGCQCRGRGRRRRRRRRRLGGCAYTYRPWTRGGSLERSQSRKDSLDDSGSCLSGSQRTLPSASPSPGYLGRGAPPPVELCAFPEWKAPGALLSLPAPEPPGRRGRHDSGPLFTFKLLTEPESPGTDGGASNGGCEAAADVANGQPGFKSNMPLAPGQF

[3] = target: T3, Alpha-1A adrenergic receptor (Homo sapiens, UniProt P35348); test: Binding affinity was tested on human Alpha-1A adrenergic receptor
T3 sequence (P35348 whole entry): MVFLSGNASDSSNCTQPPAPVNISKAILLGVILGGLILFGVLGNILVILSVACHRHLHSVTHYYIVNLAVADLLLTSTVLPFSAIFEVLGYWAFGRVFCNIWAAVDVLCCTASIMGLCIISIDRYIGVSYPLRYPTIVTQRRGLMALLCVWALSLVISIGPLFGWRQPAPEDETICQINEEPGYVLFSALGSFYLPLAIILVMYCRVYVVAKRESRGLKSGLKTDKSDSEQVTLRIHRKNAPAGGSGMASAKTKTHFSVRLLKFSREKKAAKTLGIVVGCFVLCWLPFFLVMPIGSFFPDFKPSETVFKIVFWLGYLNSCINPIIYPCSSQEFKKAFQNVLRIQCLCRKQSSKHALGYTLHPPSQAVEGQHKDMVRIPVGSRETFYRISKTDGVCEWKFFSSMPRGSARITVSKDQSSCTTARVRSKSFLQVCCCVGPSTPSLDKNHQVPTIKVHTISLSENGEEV

[4] = target: T4, 3-oxo-5-alpha-steroid 4-dehydrogenase 2 (Homo sapiens, UniProt P31213); test: Inhibition of human 5-alpha reductase 2 isozyme.
T4 sequence (P31213 whole entry): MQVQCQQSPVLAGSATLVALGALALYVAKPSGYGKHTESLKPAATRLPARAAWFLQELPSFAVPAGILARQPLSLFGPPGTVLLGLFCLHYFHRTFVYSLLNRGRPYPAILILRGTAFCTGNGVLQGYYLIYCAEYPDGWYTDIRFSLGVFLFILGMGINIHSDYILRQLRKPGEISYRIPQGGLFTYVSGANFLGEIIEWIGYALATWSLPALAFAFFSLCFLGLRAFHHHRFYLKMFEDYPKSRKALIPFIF

[5] = target: T5, 3-oxo-5-alpha-steroid 4-dehydrogenase 1 (Homo sapiens, UniProt P18405); test: Inhibitory concentration was tested on human 5-alpha reductase 1 isozyme
T5 sequence (P18405 whole entry): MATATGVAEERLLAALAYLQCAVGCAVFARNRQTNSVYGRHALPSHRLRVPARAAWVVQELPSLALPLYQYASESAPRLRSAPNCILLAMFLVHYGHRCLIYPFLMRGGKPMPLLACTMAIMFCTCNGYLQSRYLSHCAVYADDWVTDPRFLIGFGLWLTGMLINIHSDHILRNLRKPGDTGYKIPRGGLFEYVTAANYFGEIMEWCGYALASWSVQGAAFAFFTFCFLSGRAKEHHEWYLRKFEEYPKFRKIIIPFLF

[6] = Apparent binding affinity on human 5-alpha reductase isozyme
[7] = target: T6, Steroid 5-alpha-reductase (Rattus norvegicus, UniProt P24008+P31214); test: Inhibition of rat 5-alpha reductase isozyme.; assay type: protein assay
T6 sequence (P24008 whole entry): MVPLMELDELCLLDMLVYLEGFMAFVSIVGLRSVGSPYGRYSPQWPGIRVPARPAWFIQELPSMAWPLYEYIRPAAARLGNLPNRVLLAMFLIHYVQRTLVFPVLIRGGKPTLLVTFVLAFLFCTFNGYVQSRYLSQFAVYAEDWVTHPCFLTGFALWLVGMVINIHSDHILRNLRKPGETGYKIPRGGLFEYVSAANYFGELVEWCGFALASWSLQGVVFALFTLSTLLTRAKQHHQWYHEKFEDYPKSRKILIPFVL
T6 sequence (P31214 whole entry): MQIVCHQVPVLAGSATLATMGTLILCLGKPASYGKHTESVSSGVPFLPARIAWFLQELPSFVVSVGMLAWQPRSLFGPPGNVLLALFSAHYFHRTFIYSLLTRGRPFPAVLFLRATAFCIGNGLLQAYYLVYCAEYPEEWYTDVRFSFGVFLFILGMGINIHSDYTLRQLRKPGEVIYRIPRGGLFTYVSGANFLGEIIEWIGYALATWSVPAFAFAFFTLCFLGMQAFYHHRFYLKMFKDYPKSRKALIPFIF

## COc1ccc(CCNCC2CCc3ccccc3C2)cc1 (centres undefined)
[1]
  Ki: 158 nM
[2]
  Ki: 39.8 nM
[3]
  Ki: 3.98 nM

## CC(=O)CC(=O)NCCCN1CCC(c2ccccc2)(c2ccccc2)CC1
[3]
  Ki: 100 nM

## COc1cc2nc(N(C)CCCNC(=O)C3CCCO3)nc(N)c2cc1OC (centres undefined) [ALFUZOSIN]
[2]
  Ki: 10 nM

## CC(C)CCCC(C)[C@H]1CCC2C3CCC4N(C)C(=O)CC[C@]4(C)C3CC[C@@]21C (some centres undefined)
[4]
  IC50: 218 nM
[5]
  IC50: 1.7 nM

## CO/C(O)=C1\C(C)=NC(C)=C(C(=O)NCCCN2CCC(c3ccccc3)(c3ccccc3)CC2)C1c1ccc(OC(C)C)cc1 (centres undefined)
[1]
  Ki: 891 nM
[2]
  Ki: 174 nM
[3]
  Ki: 69.2 nM

## CC(C)N(C(=O)[C@H]1CCC2C3CCC4C=C([N+](=O)[O-])CC[C@]4(C)C3CC[C@@]21C)C(C)C (some centres undefined)
[6]
  Ki: 50 nM

## CCN(CC)C(=O)[C@H]1CC[C@H]2[C@@H]3CC[C@H]4N(C)C(=O)CC[C@]4(C)[C@H]3CC[C@]12C
[7]
  IC50: 9.5 nM
[4]
  IC50: 1.9 nM
[5]
  IC50: 1.7 nM

## Cc1c(C(=O)c2ccc3c(c2)OC(c2ccc(Cl)cc2)(c2ccc(Cl)cc2)O3)c2ccccc2n1CCCC(=O)O
[7]
  IC50: 588 nM
[4]
  IC50: 6300 nM
[5]
  IC50: 10 nM

## C[C@H](Cc1cc2c(c(C(N)=O)c1)N(CCCO)CC2)NCCOc1ccccc1OCC(F)(F)F [SILODOSIN]
[1]
  Ki: 2 nM
[2]
  Ki: 20 nM
[3]
  Ki: 0.0398 nM

## CC(C)N(C(=O)[C@H]1CCC2C3CCC4C=C([N+](=O)[O-])C=CC4(C)C3CC[C@@]21C)C(C)C (single isomer, unassigned)
[6]
  Ki: > 5000 nM

## CCN1C(=O)CC[C@]2(C)C3CC[C@@]4(C)C(CC[C@@H]4C(C)CCCC(C)C)C3[C@@H](C)CC12 (some centres undefined)
[4]
  IC50: 1390 nM
[5]
  IC50: 3.3 nM

## COc1cc2nc(N3CCN(C(=O)c4ccco4)[C@H]4CCCC[C@H]43)nc(N)c2cc1OC [CYCLAZOSIN]
[3]
  Ki: 25.1 nM

## CN1C(=O)CC[C@]2(C)c3ccc(Cl)cc3CCC12 (some centres undefined)
[5]
  IC50: 17 nM

## CC(C)N(C(=O)[C@H]1CCC2C3CC=C4C=C(C(=O)O)CC[C@]4(C)C3CC[C@@]21C)C(C)C (some centres undefined)
[6]
  Ki: 7 nM

## Cc1c(O[C@@H](C)c2ccc(CC(C)C)cc2)ccc(C(=O)Nc2ccccc2OCCCC(=O)O)c1C
[4]
  IC50: 256 nM

## CCOc1ccccc1OCCN[C@H](C)Cc1ccc(OC)c(S(N)(=O)=O)c1 (stereo in doubt; form 3) [TAMSULOSIN]
[1]
  Ki: 7.94 nM
[2]
  Ki: 100 nM

## C[C@]12C=CC(=O)NC1CCC1C2CC[C@@]2(C)C1CC[C@@H]2C(=O)Nc1cccc2ccccc12 (some centres undefined)
[4]
  IC50: 0.2 nM
[5]
  IC50: 8.1 nM

## CC(C)Cc1ccc([C@]2(C)Oc3ccc(C(=O)c4cn(CCCC(=O)O)c5ccccc45)cc3O2)cc1
[7]
  IC50: 9 nM
[4]
  IC50: 23 nM
[5]
  IC50: 25 nM

## COc1ccccc1N1CCN(CCN2C(=O)CC3(CCCC3)CC2=O)CC1
[2]
  Ki: 631 nM

## CCC1=NC(CC)=C(C(=O)NCCCN2CCC(c3ccccc3)(c3ccccc3)CC2)C(c2ccc([N+](=O)[O-])cc2)/C1=C(\O)OC (centres undefined)
[1]
  Ki: 447 nM
[2]
  Ki: 282 nM
[3]
  Ki: 1.26 nM

## CN(C(=O)[C@H]1CCC2C3CCC4NC(=O)C=C[C@]4(C)C3CC[C@@]21C)c1ccccc1 (some centres undefined)
[4]
  IC50: 0.2 nM
[5]
  IC50: 350 nM

## C[C@]12C=CC(=O)NC1CCC1C2CC[C@@]2(C)C1CC[C@@H]2C(=O)Nc1cc(C(F)(F)F)ccc1C(F)(F)F (some centres undefined)
[4]
  IC50: 0.5 nM
[5]
  IC50: 2.4 nM

## CCCc1ccc(OC(C)c2ccc(C(=O)c3cn(CCCC(=O)O)c4ccccc34)cc2)cc1 (centres undefined)
[7]
  IC50: 5 nM
[4]
  IC50: 10 nM
[5]
  IC50: 8 nM

## CC(C)N(C(=O)[C@H]1CCC2C3CC=C4C=C([N+](=O)[O-])CC[C@]4(C)C3CC[C@@]21C)C(C)C (some centres undefined)
[6]
  Ki: 590 nM

## CC(C)Cc1ccc(C(Nc2cccc(C(=O)c3cn(CCCC(=O)O)c4ccccc34)c2)c2ccc(CC(C)C)cc2)cc1
[7]
  IC50: 128 nM
[4]
  IC50: 36 nM
[5]
  IC50: 38 nM

## CC(C)CCCC(C)[C@H]1CCC2C3C(CC[C@@]21C)[C@@]1(C)CCC(=O)N(C)C1C[C@@H]3c1ccccc1 (some centres undefined)
[4]
  IC50: 428 nM
[5]
  IC50: 134 nM

## C[C@]12C=CC(=O)NC1CCC1C2CC[C@@]2(C)C1CC[C@@H]2C(=O)Nc1cccc(-c2ccccc2)c1 (some centres undefined)
[4]
  IC50: < 0.1 nM
[5]
  IC50: 14 nM

## CC(C)CCCC(C)[C@H]1CCC2C3CC=C4NC(=O)CC[C@]4(C)C3CC[C@@]21C (some centres undefined)
[5]
  IC50: 19.1 nM

## CO/C(O)=C1\C(C)=NC(C)=C(C(=O)NCCCCN2CCC(c3ccccc3)(c3ccccc3)CC2)C1c1ccc([N+](=O)[O-])cc1 (centres undefined)
[1]
  Ki: 145 nM
[2]
  Ki: 64.6 nM
[3]
  Ki: 5.89 nM

## C[C@]12C=CC(=O)NC1CCC1C2CC[C@@]2(C)C1CC[C@@H]2C(=O)Nc1ccccc1C(F)(F)F (some centres undefined)
[4]
  IC50: < 0.1 nM
[5]
  IC50: 5.6 nM

## CCOc1ccccc1OCCN[C@H](C)Cc1ccc(OC)c(S(N)(=O)=O)c1 (stereo in doubt; form 2) [TAMSULOSIN]
[2]
  Ki: 1.26 nM

## COc1cccc(OC)c1OCCNCC1COc2ccccc2O1 (centres undefined)
[3]
  Ki: 0.158 nM

## COc1c(C)c(C)c(O)c(C)c1CN(C)CCOc1cc(C)c(O)cc1C(C)C
[1]
  Ki: 1.26 nM
[2]
  Ki: 1.26 nM
[3]
  Ki: 0.398 nM

## CC(C)Cc1ccc([C@@H](C)Oc2ccc(C(=O)c3cn(CCCC(=O)O)c4ccccc34)cc2)cc1
[7]
  IC50: 30 nM
[4]
  IC50: 69 nM
[5]
  IC50: 574 nM

## O=C(O)c1ccc2c(c1)CCc1cc(Br)ccc1-2
[4]
  IC50: 10000 nM
[5]
  IC50: 26 nM

## C[C@]12C=CC(=O)NC1CCC1C2CC[C@@]2(C)C1CC[C@@H]2C(=O)N(c1ccccc1)c1ccccc1 (some centres undefined)
[4]
  IC50: 25.2 nM
[5]
  IC50: > 1000 nM

## CC(C)Cc1ccc([C@H](C)Oc2ccc(C(=O)c3cn(CCCC(=O)O)c4ccccc34)cc2)cc1
[7]
  IC50: 1 nM
[4]
  IC50: 4 nM
[5]
  IC50: 40 nM

## C[C@]12C=CC(=O)NC1CCC1C2CC[C@@]2(C)C1CC[C@@H]2C(=O)Nc1ccccc1 (some centres undefined)
[4]
  IC50: < 0.1 nM
[5]
  IC50: 20 nM

## CCC1=C(C(=O)NCCCN2CCC(c3ccccc3)(c3ccccc3)CC2)C(c2ccc([N+](=O)[O-])cc2)/C(=C(\O)OC)C(C)=N1 (centres undefined)
[1]
  Ki: 204 nM
[2]
  Ki: 148 nM
[3]
  Ki: 0.661 nM
